For data set [1], the system named is acetyl-CoA carboxylase (ACC, Ser80) phosphorylation in U2OS cells. The experiment in a line: ACC phosphorylation in U2OS cells (Western blot). It is filed as cell-based, human. The settings on record: 30 min inhibitor then 30 min MK-8722 (300 nM), read-out: IC50, inhibition of MK-8722-stimulated ACC phosphorylation. The method, then:
(§1) T-Rex U2OS cells carrying a Flp Recombinase Target (FRT) site were generated as described previously and grown in Dulbecco’s Modified Eagle’s Medium (DMEM) supplemented with 10% (v/v) FBS and 1% (v/v) penicillin/streptomycin.
(§2) Cells were lysed rapidly in situ on culture plates using ice-cold lysis medium containing phosphatase inhibitors, as described previously.
(§3) SDS-PAGE was performed using precast NuPAGE Tris-acetate 3–8% gradient polyacrylamide gels in Tris-acetate running buffer when analyzing ACC, GBF1, or Raptor, or NuPAGE Bis-Tris 4–12% gradient polyacrylamide gels in the MOPS buffer system (ThermoFisher Scientific, Waltham, MA, USA) for other proteins (unless stated otherwise). Proteins were transferred to nitrocellulose membranes using the iBlot 2 system (ThermoFisher Scientific). Membranes were enhanced if necessary using SuperSignal Western Blot Enhancer (ThermoFisher Scientific), then blocked for 1 h in Li-Cor Odyssey blocking buffer. The membranes were probed with the appropriate primary antibody ([…]) overnight at 4 °C. Detection was performed using secondary antibody or streptavidin probe (for total ACC) coupled to IR 680 or IR 800 dye, and the membranes were scanned using the LICOR Odyssey IR imager. Protein concentrations were determined by Coomassie Blue binding with bovine serum albumin as a standard. The cellular levels of AMP and ATP were determined via direct perchloric acid extraction from cells, with LC:MS used to estimate the levels of each nucleotide.
In general terms: Immunoblotting shows a protein as a band on a membrane.

Data set [2] relates to GBF1 (Thr1337) phosphorylation in U2OS cells. The experiment in a line: GBF1 phosphorylation in U2OS cells (Western blot). It is filed as cell-based, human. The settings on record: 30 min inhibitor then 30 min MK-8722 (300 nM), read-out: IC50, inhibition of MK-8722-stimulated GBF1 phosphorylation. The procedure: as §1, §2, §3
The test system of data set [3] is phosphorylation of Thr172 on AMPK-α in U2OS cells. Put plainly: AMPK Thr172 phosphorylation in U2OS cells (Western blot). It is filed as cell-based, human. The procedure:
as §1, §2, §3

The nature of data set [4]: Pharmacokinetic study in mice, blood levels by LC:MS. It is filed as in vivo, NOD-SCID mice. The settings on record: 10 mg/kg oral gavage after 1-aminobenzotriazole 50 mg/kg. The procedure:
All experiments with live animals were approved in advance by the Ethical Review Committee of the University of Dundee in accordance with the UK Animal (Scientific Procedures) Act 1986. Two female mice of the NOD-SCID strain were obtained from Charles River Laboratories, UK. The animals were maintained under a 12 h light/12 h dark cycle. The animals were allowed ad libitum access to food (RM1; Special Diet Services, UK) and water. Temperature and relative humidity were maintained between 20 and 24 °C and 45 and 65%, respectively. All animals received a minimum of 14 days acclimatization prior to the start of the study. 1-Aminobenzotriazole was dissolved on the day of dosing in Milli-Q ultrapure water at a concentration of 10 mg/mL and dosed via oral gavage at a dose level of 50 mg/kg. BAY-3827 was suspended in 0.5% hydroxypropylmethylcellulose (Methocel K15M Premium USP/EP; Colorcon) in water, at a concentration of 2 mg/mL. The BAY-3827 formulation was dosed via oral gavage at a dose level of 10 mg/kg, 30 min after the administration of 1-aminobenzotriazole. The animals were observed regularly after dose administration. […]
A Waters Acquity Performance Liquid Chromatography coupled to a Waters Xevo TQ-S tandem mass spectrometer was used for the quantification of BAY-3827, using donepezil hydrochloride as an internal standard. […]
Calibration samples, QC samples, blanks, double blanks, and study samples were extracted through protein precipitation. […] The resultant supernatant from the calibration samples, QCs, double blanks, and blanks (200 µL) and study samples (80 µL) was then transferred to HPLC glass vials containing Milli-Q water (100 µL or 40 µL, respectively) to reduce the solvent strength ready for UHPLC/MS analysis.
The sample concentrations were determined via a linear regression (weighting: 1/x) on the calibration samples using Waters TargetLynx application (v4.2). […] The lower limit of quantification (LLoQ) was determined as the analyte response with ≥three times the analyte response of the blanks (plasma with internal standard but not analyte). […]

This is an account of results in paper PMC10778976, “BAY-3827 and SBI-0206965: Potent AMPK Inhibitors That Paradoxically Increase Thr172 Phosphorylation” (International Journal of Molecular Sciences, 2023).

Like-named read-outs stand apart in the source and are kept apart here.

What is called IC50 is the midpoint of a concentration-inhibition curve. As for `CNC(=O)c1ccccc1Oc1nc(Nc2cc(OC)c(OC)c(OC)c2)ncc1Br` [SBI-0206965], the IC50 in data set [1] came to 42000 nM; in data set [2], 12000 nM. Moreover, in data set [3] (3–30 µM), the “increase of Thr172 phosphorylation, maximal effect at low concentrations” value is on record as “about 2 fold”. The “increase of Thr172 phosphorylation at high concentrations” value in data set [3] (100–300 µM, not saturated) is recorded as 4 fold.
The EC50 is the concentration giving half of the maximal effect. As to `CCc1ccccc1C(=O)Nc1n[nH]c2c(C)c(F)c(C3C(C#N)=C(C)N(C)C(C)=C3C#N)cc12` [BAY-3827], the IC50 in data set [1] stood at 270 nM; in data set [1] (Homo sapiens, U2OS, 0.5 h), 260 nM; in data set [2] (Homo sapiens, 0.5 h), 55 nM. Further, the EC50 in data set [3] (Homo sapiens, read-out: EC50, half-maximal increase of Thr172 phosphorylation) was found to be 164 nM. For the same molecule, the “maximum increase of Thr172 phosphorylation” value in data set [3] (pThr172:total AMPK relative to control) is listed as 9.7 fold. The same molecule showed a blood concentration in data set [4] (after 4–8 h) of 20 to 30 nM. Moreover, in data set [4] (at 60 min), the “peak blood concentration (mean)” value was 90 nM and ≈ 90 nM. The molecule further displayed a concentration at 8 h in data set [4] (female, NOD-SCID, mouse, whole blood, after 8 h) of 20 nM.
